In PubChem BioAssay (NCI):
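Exposure lasted 48 hours, with cells grown in 96-well plates and compounds tested at five concentrations. Abbreviation: GI50, concentration required for 50% inhibition of growth. TGI marks complete inhibition of growth.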

Key:
Experiment in all cases: DTP human tumour cell line panel, 48 h
786-0 renal = tested on: 786-0 renal
A498 renal = tested on: A498 renal
A549 NSCLC = tested on: A549 NSCLC
ACHN renal = tested on: ACHN renal
BT-549 breast = tested on: BT-549 breast
CAKI-1 renal = tested on: CAKI-1 renal
CCRF-CEM leukemia = tested on: CCRF-CEM leukemia
COLO 205 colon = tested on: COLO 205 colon
DU-145 prostate = tested on: DU-145 prostate
EKVX NSCLC = tested on: EKVX NSCLC
HCC-2998 colon = tested on: HCC-2998 colon
HCT-116 colon = tested on: HCT-116 colon
HCT-15 colon = tested on: HCT-15 colon
HL-60(TB) leukemia = tested on: HL-60(TB) leukemia
HOP-62 NSCLC = tested on: HOP-62 NSCLC
HOP-92 NSCLC = tested on: HOP-92 NSCLC
HS 578T breast = tested on: HS 578T breast
HT29 colon = tested on: HT29 colon
IGROV1 ovarian = tested on: IGROV1 ovarian
K-562 leukemia = tested on: K-562 leukemia
KM12 colon = tested on: KM12 colon
LOX IMVI melanoma = tested on: LOX IMVI melanoma
M14 melanoma = tested on: M14 melanoma
MALME-3M melanoma = tested on: MALME-3M melanoma
MCF7 breast = tested on: MCF7 breast
MDA-MB-231 breast = tested on: MDA-MB-231 breast
MDA-MB-435 = tested on: MDA-MB-435
MOLT-4 leukemia = tested on: MOLT-4 leukemia
NCI-H226 lung = tested on: NCI-H226 lung
NCI-H23 lung = tested on: NCI-H23 lung
NCI-H460 lung = tested on: NCI-H460 lung
NCI-H522 lung = tested on: NCI-H522 lung
NCI/ADR-RES ovarian = tested on: NCI/ADR-RES ovarian
OVCAR-4 ovarian = tested on: OVCAR-4 ovarian
OVCAR-5 ovarian = tested on: OVCAR-5 ovarian
OVCAR-8 ovarian = tested on: OVCAR-8 ovarian
PC-3 prostate = tested on: PC-3 prostate
RPMI-8226 leukemia = tested on: RPMI-8226 leukemia
RXF 393 renal = tested on: RXF 393 renal
SF-268 CNS = tested on: SF-268 CNS
SF-295 CNS = tested on: SF-295 CNS
SF-539 CNS = tested on: SF-539 CNS
SK-MEL-2 melanoma = tested on: SK-MEL-2 melanoma
SK-MEL-28 melanoma = tested on: SK-MEL-28 melanoma
SK-MEL-5 melanoma = tested on: SK-MEL-5 melanoma
SK-OV-3 ovarian = tested on: SK-OV-3 ovarian
SN12C renal = tested on: SN12C renal
SNB-19 CNS = tested on: SNB-19 CNS
SNB-75 CNS = tested on: SNB-75 CNS
SR leukemia = tested on: SR leukemia
SW-620 colon = tested on: SW-620 colon
T-47D breast = tested on: T-47D breast
TK-10 renal = tested on: TK-10 renal
U251 CNS = tested on: U251 CNS
UACC-257 melanoma = tested on: UACC-257 melanoma
UACC-62 melanoma = tested on: UACC-62 melanoma
UO-31 renal = tested on: UO-31 renal

With `CNC(=O)c1cc(N2CCc3cc(NC(=O)Nc4ccc(N5CCN(C)CC5)c(C(F)(F)F)c4)ccc32)ccn1` the GI50 (786-0 renal) was 2860 nM, the TGI (786-0 renal) was 6.15 µM and the GI50 (A498 renal) was 7.9 µM. For the same compound, the TGI (A498 renal) was > 25 µM, the GI50 (A549 NSCLC) was 3.94 µM and the TGI (A549 NSCLC) was 7.99 µM. It also gave a GI50 (ACHN renal) of 3.92 µM, a TGI (ACHN renal) of 7.31 µM and a GI50 (BT-549 breast) of 4.59 µM. For the same compound, the TGI (BT-549 breast) was 14.4 µM, the GI50 (CAKI-1 renal) was 4.43 µM and the TGI (CAKI-1 renal) was 9.07 µM. It also gave a GI50 (CCRF-CEM leukemia) of 1170 nM, a TGI (CCRF-CEM leukemia) of 21.6 µM and a GI50 (COLO 205 colon) of 4.54 µM. For the same compound, the TGI (COLO 205 colon) was 8.71 µM, the GI50 (DU-145 prostate) was 4.22 µM and the TGI (DU-145 prostate) was 8.12 µM. The GI50 (EKVX NSCLC) was 3.95 µM, the TGI (EKVX NSCLC) was 7.73 µM and the GI50 (HCC-2998 colon) was 4.13 µM. For the same compound, the TGI (HCC-2998 colon) was 7.83 µM, the GI50 (HCT-116 colon) was 2220 nM and the TGI (HCT-116 colon) was 5.35 µM. The GI50 (HCT-15 colon) was 879 nM, the TGI (HCT-15 colon) was 3.59 µM and the GI50 (HL-60(TB) leukemia) was 4.28 µM. It also gave a TGI (HL-60(TB) leukemia) of 11.9 µM, a GI50 (HOP-62 NSCLC) of 4.02 µM and a TGI (HOP-62 NSCLC) of 8.34 µM. The GI50 (HOP-92 NSCLC) was 21.4 µM, the TGI (HOP-92 NSCLC) was > 25 µM and the GI50 (HS 578T breast) was 3.49 µM. The TGI (HS 578T breast) was 9.66 µM, the GI50 (HT29 colon) was 1310 nM and the TGI (HT29 colon) was 4.91 µM. The GI50 (IGROV1 ovarian) was 4.6 µM, the TGI (IGROV1 ovarian) was 9.53 µM and the GI50 (K-562 leukemia) was 690 nM. For the same compound, the TGI (K-562 leukemia) was 2190 nM, the GI50 (KM12 colon) was 862 nM and the TGI (KM12 colon) was 4.24 µM. For the same compound, the GI50 (LOX IMVI melanoma) was 3.44 µM, the TGI (LOX IMVI melanoma) was 7.14 µM and the GI50 (M14 melanoma) was 3.34 µM. The TGI (M14 melanoma) was 6.67 µM, the GI50 (MALME-3M melanoma) was 3.72 µM and the TGI (MALME-3M melanoma) was 7.52 µM. For the same compound, the GI50 (MCF7 breast) was 2960 nM, the TGI (MCF7 breast) was 7.39 µM and the GI50 (MDA-MB-231 breast) was 3.48 µM. The TGI (MDA-MB-231 breast) was 7.83 µM, the GI50 (MDA-MB-435) was 3.99 µM and the TGI (MDA-MB-435) was 7.6 µM. For the same compound, the GI50 (MOLT-4 leukemia) was 1180 nM, the TGI (MOLT-4 leukemia) was 22 µM and the GI50 (NCI-H226 lung) was > 25 µM. For the same compound, the TGI (NCI-H226 lung) was > 25 µM, the GI50 (NCI-H23 lung) was 3.73 µM and the TGI (NCI-H23 lung) was 8.06 µM. The GI50 (NCI-H460 lung) was 3.78 µM, the TGI (NCI-H460 lung) was 7.68 µM and the GI50 (NCI-H522 lung) was 4.87 µM. It also gave a TGI (NCI-H522 lung) of 9.54 µM, a GI50 (NCI/ADR-RES ovarian) of 5.27 µM and a TGI (NCI/ADR-RES ovarian) of 12 µM. The GI50 (OVCAR-4 ovarian) was 3.96 µM, the TGI (OVCAR-4 ovarian) was 8.69 µM and the GI50 (OVCAR-5 ovarian) was 3.76 µM. The TGI (OVCAR-5 ovarian) was 8.4 µM, the GI50 (OVCAR-8 ovarian) was 4.48 µM and the TGI (OVCAR-8 ovarian) was 8.67 µM. It also gave a GI50 (PC-3 prostate) of 4.36 µM, a TGI (PC-3 prostate) of 15.3 µM and a GI50 (RPMI-8226 leukemia) of 742 nM. The TGI (RPMI-8226 leukemia) was 2690 nM, the GI50 (RXF 393 renal) was 815 nM and the TGI (RXF 393 renal) was 3.15 µM. The GI50 (SF-268 CNS) was 4.08 µM, the TGI (SF-268 CNS) was 9.86 µM and the GI50 (SF-295 CNS) was 541 nM. For the same compound, the TGI (SF-295 CNS) was 1330 nM, the GI50 (SF-539 CNS) was 1030 nM and the TGI (SF-539 CNS) was 4.15 µM. It also gave a GI50 (SK-MEL-2 melanoma) of 4.56 µM, a TGI (SK-MEL-2 melanoma) of 8.66 µM and a GI50 (SK-MEL-28 melanoma) of 3.7 µM. It also gave a TGI (SK-MEL-28 melanoma) of 7.19 µM, a GI50 (SK-MEL-5 melanoma) of 4.32 µM and a TGI (SK-MEL-5 melanoma) of 7.89 µM. For the same compound, the GI50 (SK-OV-3 ovarian) was > 25 µM, the TGI (SK-OV-3 ovarian) was > 25 µM and the GI50 (SN12C renal) was 4.05 µM. It also gave a TGI (SN12C renal) of 8.1 µM, a GI50 (SNB-19 CNS) of 3.6 µM and a TGI (SNB-19 CNS) of 8.12 µM. The GI50 (SNB-75 CNS) was 2550 nM, the TGI (SNB-75 CNS) was 5.75 µM and the GI50 (SR leukemia) was 790 nM. It also gave a TGI (SR leukemia) of 4.43 µM, a GI50 (SW-620 colon) of 881 nM and a TGI (SW-620 colon) of 2870 nM. For the same compound, the GI50 (T-47D breast) was 4.14 µM, the TGI (T-47D breast) was 9.32 µM and the GI50 (TK-10 renal) was 5.42 µM. The TGI (TK-10 renal) was 11.1 µM, the GI50 (U251 CNS) was 2450 nM and the TGI (U251 CNS) was 5.75 µM. The GI50 (UACC-257 melanoma) was 4.31 µM, the TGI (UACC-257 melanoma) was 8.05 µM and the GI50 (UACC-62 melanoma) was 4.48 µM. It also gave a TGI (UACC-62 melanoma) of 9.4 µM, a GI50 (UO-31 renal) of 4.22 µM and a TGI (UO-31 renal) of 9.43 µM.
